Assay results as given in patent publication US5430150A, “Retroviral protease inhibitors” (American Cyanamid Company, priority 1992, dated 1995).
Read-outs that look alike come from different tables or passages of the source.

Key:
HIV-1 protease = HIV-1 protease (Human immunodeficiency virus type 1 group M subtype B, UniProt P04585); assay: biochemical; assay type: biochemical
Description: IC50 values for enzyme inhibition are determined using HIV-1 and Amersham's HIV proteinase [^125 I]-scintillation proximity assay (SPA).
Amersham's HIV proteinase [^125 I]-SPA system is a commercial assay incorporating the scintillation proximity assay (SPA) principle available from Amersham International PLC, Bucks, England.
The SPA microspheres provided by Amersham have the substrate linked directly to the surface through a streptavidin-biotin link. The substrate is a 12 residue peptide designed specifically for this application utilizing current knowledge of known cleavage sites for the enzyme and analogue substrate studies. The sequence of the substrate is: [drawing 22]
The peptide is monoiodinated on the tyrosine residue and biotinylated through the epsilon-NH2 group on the lysine. It is linked to the SPA bead via a streptavidin-link. The beads are suspended in a buffer consisting of 5 mM DTT, 1 mM EDTA, 10% w/v glycerol, 0.05% W/v sodium azide, 0.01% v/v Triton X-100 in 25 mM sodium citrate buffer pH 5.5.
The enzyme cleaves at the Phe-Phe bond releasing the ^125 I fragment from the bead. This event causes the removal of detectable signal from the microsphere. […] The rate of reduction in signal is proportional to the activity of the enzyme. The obtained data is used to calculate the IC50 values found in Table 1.

[1] = system: HIV-1 strain IIIB in T lymphoid MT-2 cell lines; assay: inhibition of growth of HIV-1 strain IIIB in T lymphoid MT-2 cell lines (metabolic MTT dye); assay type: cell-based; settings: Human immunodeficiency virus 1, IIIB, MT2, 120 h, 5 days; for inhibition at 0.01 µg/mL: 0.010 μg/ml, read-out: % Inhibition at concentration 0.010 μg/ml; for inhibition at 0.039 µg/mL: 0.039 μg/ml, read-out: % Inhibition at concentration 0.039 μg/ml; for inhibition at 0.156 µg/mL: 0.156 μg/ml, read-out: % Inhibition at concentration 0.156 μg/ml; for inhibition at 0.625 µg/mL: 0.625 μg/ml, read-out: % Inhibition at concentration 0.625 μg/ml; for inhibition at 2.5 µg/mL: 2.5 μg/ml, read-out: % Inhibition at concentration 2.5 μg/ml
Description: In Table 2, data is shown for the ability of these compounds to inhibit growth of HIV-1 strain IIIB in T lymphoid MT-2 cell lines. The cell line is challenged by free virons selected to result in 90-95% cell death (CPE) by day 5. The protease inhibitor compound is then added in the stated concentration. After 5 days, the surviving cells are measured using metabolic MTT dye.

[2] = Activity of Compounds as Enzyme Inhibitor

| Compound | IC50 (HIV-1 protease; [2]) [nM] | IC50 (HIV-1 protease) [nM] | inhibition at 0.01 µg/mL [1] [%] | inhibition at 0.039 µg/mL [1] [%] | inhibition at 0.156 µg/mL [1] [%] | inhibition at 0.625 µg/mL [1] [%] | inhibition at 2.5 µg/mL [1] [%] |
| --- | --- | --- | --- | --- | --- | --- | --- |
| CC[C@H](C)[C@H](NC(=O)[C@H](Cc1ccccc1)CC(O)CN1C[C@H]2CCCC[C@H]2C[C@H]1C(=O)NC(C)(C)C)C(=O)NCc1nc2ccccc2[nH]1 (single isomer, unassigned) [Example 24A, [3S-[2[alphaS*(1R*,2R*),gammaR*(or S*),3alpha,4abeta,8abeta]]-N-[1-[[(1H-Benzimidazol-2-ylmethyl)amino]carbonyl]-2-methylbutyl]-3-[(1,1-dimethylethyl)amino]carbonyl]decahydro-gamma-hydroxy-alpha-(pentylmethyl)-2-isoquinolinepentanamide] | 72.8 |  | 10.7 | 63.3 | 100 | 103 | 96 |
| CC[C@H](C)[C@H](NC(=O)[C@H](Cc1ccccc1)CC(O)(CO)CN1C[C@H]2CCCC[C@H]2C[C@H]1C(=O)NC(C)(C)C)C(=O)NCc1nc2ccccc2[nH]1 (stereo partly drawn) [Example 21, [3S-[2[alphaS*(1R*,2R*),gammaR*(and S*),3alpha,4abeta,8abeta]]-N[1-[[(1H-Benzimidazol-2-ylmethyl)amino]carbonyl]-2-methylbutyl]-3-[[(1,1-dimethylethyl)amino]carbonyl]decahydro-gamma-hydroxy-gamma-(hydroxymethyl)alpha-(phenylmethyl)-2-isoquinolinepentanamide] | 69.7 |  | 0 | 8.1 | 33 | 103 | 102 |
| CC[C@H](C)[C@H](NC(=O)[C@H](Cc1ccccc1)CC(O)CN1C[C@H]2CCCC[C@H]2C[C@H]1C(=O)NC(C)(C)C)C(=O)NCc1nc2ccccc2[nH]1 (stereo partly drawn) [Example 23, [3S-[2[alphaS*(1R*,2R*),gammaR* (and S*)],3alpha,4abeta,8abeta]]-N-[1-[[(1H-Benzimidazol-2-ylmethyl)amino]carbonyl]-2-methylbutyl]-3-[[(1,1-dimethylethyl)amino]carbonyl]decahydro-gamma-hydroxy-alpha-(phenylmethyl)-2-isoquinolinepentanamide] | 72.8 |  | 13 | 78.7 | 93.6 | 95.8 | 98.5 |
| CC[C@H](C)[C@H](NC(=O)[C@H](Cc1ccccc1)CC(O)(CO)CN1C[C@H]2CCCC[C@H]2C[C@H]1C(=O)NC(C)(C)C)C(=O)NCc1ccccn1 (stereo partly drawn) [Example 26, [3S-[2[gammaR*(and S*),gamma[alphaS*[1R*,1(R*)]]],3alpha,4abeta,8abeta]]-3-[[(1,1-Dimethylethyl)amino]carbonyl]octahydro-gamma-hydroxy-gamma-(hydroxymethyl)-N-[[2-methyl-1-[[(2-pyridinylmethyl)amino]carbonyl]butyl]-alpha-(phenylmethyl)-2(1H)-isoquinolinepentanamide] | 738 |  |  |  |  |  |  |
| CC[C@H](C)[C@H](NC(=O)[C@H](Cc1ccccc1)CC(O)CN1C[C@H]2CCCC[C@H]2C[C@H]1C(=O)NC(C)(C)C)C(=O)OC (stereo partly drawn) [Example 32, [3S-[2[2S*,4R*(and S*)],3alpha,4abeta,8abeta]-N-[5-[3-[[(1,1-Dimethylethyl)amino]carbonyl]octahydro-2(1H)-isoquinolinyl]-4-hydroxy-1-oxo-2-(phenylmethyl)pentyl]-L-isoleucinemethyl ester] | 874 |  |  |  |  |  |  |

Second part, led by results:

| IC50 (HIV-1 protease; [2]) [nM] | IC50 (HIV-1 protease) [nM] | Compound | inhibition at 0.01 µg/mL [1] [%] | inhibition at 0.039 µg/mL [1] [%] | inhibition at 0.156 µg/mL [1] [%] | inhibition at 0.625 µg/mL [1] [%] | inhibition at 2.5 µg/mL [1] [%] |
| --- | --- | --- | --- | --- | --- | --- | --- |
| 415 |  | CC[C@H](C)[C@H](NC(=O)[C@H](Cc1ccccc1)CC(O)(CO)CN1C[C@H]2CCCC[C@H]2C[C@H]1C(=O)NC(C)(C)C)C(=O)OC (relative stereo) [Example 30, 3S-[2(2S*),3alpha,4abeta,8abeta]]-N-[5-[3-[[(1,1-Dimethylethyl)amino]carbonyl]octahydro-2(1H)-isoquinolinyl]4-hydroxy-4-(hydroxymethyl)-1-oxo-2-(phenylmethyl)pentyl]-L-isoleucine methyl ester] |  |  |  |  |  |
| 154 |  | CC[C@H](C)[C@H](NC(=O)[C@H](Cc1ccccc1)CC(O)CN1C[C@H]2CCCC[C@H]2C[C@H]1C(=O)NC(C)(C)C)C(=O)NCc1ccccn1 (stereo partly drawn) [Example 28, [3S-[2[gammaR*(and S*),gamma[alphaS*[1R,1(R*)]]]],3alpha,4abeta,8abeta]]-3-[[(1,1-Dimethylethyl)amino]carbonyl]octahydro-gamma-hydroxy-N-[2-methyl-1-[[(2-pyridinylmethyl)amino]carbonyl]butyl]-alpha-(phenylmethyl)-2(1H)-isoqinolinepentanamide] |  |  |  |  |  |
| 68.9 |  | CC(C)(C)NC(=O)[C@@H]1C[C@@H]2CCCC[C@@H]2CN1CC(O)(CO)C[C@@H](Cc1ccccc1)C(=O)N[C@H]1CCCC[C@@H]1NC(=O)c1ccc2ccccc2n1 (stereo partly shown) [Example 35] | 0 | 0 | 1.97 | 0 | 0 |
|  | 71.8 | CC(C)(C)NC(=O)[C@@H]1C[C@@H]2CCCC[C@@H]2CN1CC(O)C[C@@H](Cc1ccccc1)C(=O)N[C@H]1CCCC[C@@H]1NC(=O)c1ccc2ccccc2n1 (stereo partly drawn) [Example 37, [3S-[2[2S*(2R*,1R*)],3alpha,4abeta,8abeta]]-N-2-[[5-[3-[[(1,1-dimethylethyl)amino]carbonyl]octahydro-2(1H )-isoquinolinyl]-4-hydroxy-1-oxo-2-(phenylmethyl)pentyl]amino]cyclohexyl]-2-quinolinecarboxamide] | 0.95 | 0 | 0 | 4.37 | 49.1 |
| 55.1 |  | CC(C)(C)NC(=O)[C@@H]1C[C@@H]2CCCC[C@@H]2CN1CC(O)(CO)C[C@@H](Cc1ccccc1)C(=O)N[C@H]1CCCC[C@@H]1NC(=O)c1cc2ccccc2cn1 (stereo partly shown) [Example 40] | 0 | 0 | 1.88 | 0.91 | 13.8 |
| 79 |  | CC(C)(C)NC(=O)[C@@H]1C[C@@H]2CCCC[C@@H]2CN1CC(O)C[C@@H](Cc1ccccc1)C(=O)N[C@H]1CCCC[C@@H]1NC(=O)c1cc2ccccc2cn1 (stereo partly drawn) [Example 42, [3S-[2[alphaS*[1R*,1(2R*)]],3alpha,4abeta,8abeta]]-3-[[(1,1-Dimethylethyl)amino]carbonyl)octahydro-gamma-hydroxy-N-[2-[(3-isoquinolinylcarbonyl)amino]cyclohexyl]-alpha-(phenylmethyl)-2-(1H)-isoquinolinepentanamide] | 4.33 | 0 | 4.21 | 12.9 | 86.8 |
|  | 128 | CC[C@H](C)[C@H](NC(=O)[C@H](Cc1ccccc1)CC(O)CN1C[C@H]2CCCC[C@H]2C[C@H]1C(=O)NC(C)(C)C)C(=O)N[C@@H](C)c1nc2ccccc2[nH]1 (stereo partly drawn) [Example 51, [3S-[2alphaS*[1R*,1(R*),2R*]],3alpha,4abeta,8abeta]]-N-[1-[[[1H-benzimidazol-2-yl)ethyl]amino]carbonyl]-2-methylbutyl]-3-[[(1,1-dimethylethyl)amino]carbonyl]octahydro-gamma-hydroxy-alpha-phenylmethyl)-2(1H)-isoquinolinepentanamide] | 1.67 | 2.24 | 10.4 | 55.1 | 72.9 |
